pIC50: −log10 of the molar value. Where a name gives a salt, the structure may show the parent alone.
Key:
NHE1 = target: T1, NHE1 (Homo sapiens, UniProt P19634); experiment: NHE inhibition FLIPR test (intracellular pH recovery, BCECF) in transfected LAP-1 cell lines; type: cell-based; details: transfected LAP-1 cell line expressing NHE1 subtype, BCECF fluorescence, pHi recovery after acidification
T1 construct: expressed in transfected cells; host or cells: LAP-1 (parental line without endogenous NHE activity), G418-selected transfectants
T1 sequence (P19634 whole entry): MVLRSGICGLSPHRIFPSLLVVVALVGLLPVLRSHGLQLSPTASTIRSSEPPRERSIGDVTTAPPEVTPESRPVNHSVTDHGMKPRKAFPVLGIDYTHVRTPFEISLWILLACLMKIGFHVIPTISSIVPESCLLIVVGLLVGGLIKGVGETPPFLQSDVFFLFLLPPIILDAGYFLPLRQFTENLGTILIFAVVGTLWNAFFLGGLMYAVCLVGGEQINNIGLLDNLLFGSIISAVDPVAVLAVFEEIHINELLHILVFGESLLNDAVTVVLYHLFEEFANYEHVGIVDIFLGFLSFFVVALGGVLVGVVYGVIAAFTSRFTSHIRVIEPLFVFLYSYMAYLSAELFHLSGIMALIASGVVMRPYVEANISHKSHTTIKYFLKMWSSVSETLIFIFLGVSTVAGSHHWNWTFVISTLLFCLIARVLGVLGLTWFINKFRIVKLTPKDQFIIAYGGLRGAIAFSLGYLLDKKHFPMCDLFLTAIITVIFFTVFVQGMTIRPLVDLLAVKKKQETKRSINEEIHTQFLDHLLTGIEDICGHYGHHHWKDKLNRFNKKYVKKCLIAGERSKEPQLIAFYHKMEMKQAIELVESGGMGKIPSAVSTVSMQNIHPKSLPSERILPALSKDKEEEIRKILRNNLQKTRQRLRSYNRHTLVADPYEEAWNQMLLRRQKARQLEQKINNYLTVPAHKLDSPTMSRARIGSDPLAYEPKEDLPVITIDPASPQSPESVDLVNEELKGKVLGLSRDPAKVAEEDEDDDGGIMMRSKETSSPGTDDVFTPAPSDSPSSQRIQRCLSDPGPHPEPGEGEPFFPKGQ
Method: The NHE inhibitory activities (IC50 values) of the compounds according to the invention were determined by a FLIPR test.
The test is performed in the FLIPR (Fluorescent Imaging Plate Reader) equipped with clear-bottomed and black-walled 96-well microtitration plates.
The growth medium for the transfected cells (Iscove+10% foetal calf serum) also comprises G418 as selection antibiotic to ensure the presence of transfected sequences.
The actual test begins by eliminating the growth medium and adding 100 μl of loading buffer per well (5 μM of BCECF-AM [2′,7′-bis(2-carboxyethyl)-5-(6)-carboxyfluoresceine acetoxymethyl ester] in 20 mM of NH4Cl 115 mM of choline chloride, 1 mM of CaCl2, 5 mM of KCl, 20 mM of HEPES and 5 mM of glucose; pH 7.4 (adjusted with KOH). The cells are then incubated for 20 minutes at 37° C. This incubation results in the loading of the fluorescent dye into the cells, the fluorescence intensity of which depends on the pHi, and on the NH4Cl, which results in a slight basification of the cells.
The precursor BCECF-AM, a non-fluorescent dye, is, as an ester, capable of crossing the membrane. The actual dye, which is incapable of crossing the membrane, is released inside the cell by esterases.
After this 20-minute incubation, the loading buffer, which comprises NH4Cl and free BCECF-AM, is removed by washing three times in the cell washing device (Tecan Columbus), each wash being performed with 400 μl of washing buffer (133.8 mM of choline chloride, 4.7 mM of KCl, 1.25 mM of MgCl2, 1.25 mM of CaCl2, 0.97 mM of K2HPO4, 0.23 mM of KH2PO4, 5 mM of HEPES and 5 mM of glucose; pH 7.4 (adjusted with KOH)). The residual volume remaining in the wells is 90 μl (possibly between 50 and 125 μl). This washing step removes the free BCECF-AM and results in an intracellular acidification (pHi of 6.3-6.4) due to the removal of the external ammonium ions.
As the equilibrium of the intracellular ammonium with the aqueous ammonia and the protons, by removal of the extracellular ammonium and by the subsequent immediate crossing of the aqueous ammonia across the cell membrane, is disrupted, the washing process results in intracellular protons remaining, which is the cause of the intracellular acidification. This acidification can result finally in the death of the cells if it lasts long enough. It is important here for the washing buffer to be free of sodium (<1 mM), otherwise the extracellular sodium ions would result in an immediate increase in the pHi on account of the activity of the cloned NHE isoforms. It is also important for all the buffers used (loading buffer, washing buffer and regeneration buffer) not to contain any HCO3-ions, otherwise the presence of bicarbonate would result in the activation of bicarbonate-dependent systems that disrupt the pHi regulation, which systems are contained in the LAP-1 parental cell line.
The microtiter plates containing acidified cells are then transferred (up to 20 minutes after the acidification) to the FLIPR. In the FLIPR, the intracellular fluorescent dye is activated with light of a wavelength of 488 nm, which is generated by an argon laser, and the measuring parameters (laser power, illumination time and diaphragm of the […] camera integrated into the FLIPR) are chosen such that the average value of the fluorescent signal per well is between 30,000 and 35,000 relative fluorescence units.
The actual measurement in the FLIPR starts with a photograph being taken by the CCD camera every two seconds under software control. After 10 seconds, the increase in the intracellular pH is initiated by adding 90 μl of regeneration buffer (133.8 mM of NaCl, 4.7 mM of KCl, 1.25 mM of MgCl2, 1.25 mM of CaCl2, 0.97 mM of K2HPO4, 0.23 mM of KH2PO4, 10 mM of HEPES and 5 mM of glucose; pH 7.4 (adjusted with NaOH)) using a 96-well pipette device incorporated into the FLIPR. Some wells, to which is added pure regeneration buffer, serve as positive controls (100% NHE activity). […]

| Compound | pIC50 (NHE1) | melting point |
| --- | --- | --- |
| Cl.NC(N)=NC(=O)c1cn(-c2nccc3ccccc23)c2ccccc12 [Example 1, 3-Guanidinocarbonyl-1-(isoquinol-1-yl)-1H-indole hydrochloride] | 7.85 | 262 °C |
| Cl.NC(N)=NC(=O)c1cn(-c2ccnc3ccccc23)c2ccccc12 [Example 2, 3-Guanidinocarbonyl-1-(quinol-4-yl)-1H-indole hydrochloride] | 8.40 | 270 °C |
| NC(N)=NC(=O)c1cn(-c2ccc3ccccc3n2)c2ccccc12 [Example 3, 3-Guanidinocarbonyl-1-(quinol-2-yl)-1H-indole hydrochloride] | 6.27 |  |
| Cc1ccc2c(c1)c(C(=O)N=C(N)N)cn2-c1nccc2ccccc12.Cl [Example 4, 3-Guanidinocarbonyl-1-(isoquinol-1-yl)-5-methyl-1H-indole hydrochloride] | 6.70 | 268 °C |
| Cc1ccc2c(c1)c(C(=O)N=C(N)N)cn2-c1ccc2ccccc2n1.Cl [Example 5, 3-Guanidinocarbonyl-5-methyl-1-(quinol-2-yl)-1H-indole hydrochloride] | 5.30 | 268 °C |
| Cc1ccc2c(c1)c(C(=O)N=C(N)N)cn2-c1ccnc2ccccc12.Cl [Example 6, 3-Guanidinocarbonyl-5-methyl-1-(quinol-4-yl)-1H-indole hydrochloride] | 6.69 | 268 °C |
| Cl.NC(N)=NC(=O)c1cn(-c2cnc3ccccc3c2)c2ccccc12 [Example 7, 3-Guanidinocarbonyl-1-(quinol-3-yl)-1H-indole hydrochloride] | 6.36 | 268 °C |
| Cl.NC(N)=NC(=O)c1cn(-c2ccc3ncccc3c2)c2ccccc12 [Example 8, 3-Guanidinocarbonyl-1-(quinol-6-yl)-1H-indole hydrochloride] | 6.84 | 268 °C |
| N=C(N)NC(=O)c1cn(-c2cccc3cccnc23)c2ccccc12 [Example 9, 3-Guanidinocarbonyl-1-(quinol-8-yl)-1H-indole] | 6.56 | 172 °C |
| N=C(N)NC(=O)c1cn(-c2cc3ccccc3cn2)c2ccccc12 [Example 10, 3-Guanidinocarbonyl-1-(isoquinol-3-yl)-1H-indole hydrochloride] | 5.73 |  |
| COc1ccc2c(C(=O)NC(=N)N)cn(-c3ccnc4ccccc34)c2c1 [Example 11, 3-Guanidinocarbonyl-6-methoxy-1-(quinol-4-yl)-1H-indole dihydrochloride] | 7.33 |  |
| N=C(N)NC(=O)c1cn(-c2ccnc3ccccc23)c2cc(F)ccc12 [Example 12, 6-Fluoro-3-guanidinocarbonyl-1-(quinol-4-yl)-1H-indole hydrochloride] | 7.12 |  |
| N=C(N)NC(=O)c1cn(-c2ccnc3ccccc23)c2ccc(F)cc12 [Example 13, 5-Fluoro-3-guanidinocarbonyl-1-(quinol-4-yl)-1H-indole hydrochloride] | 7.41 |  |
| N=C(N)NC(=O)c1cn(-c2ccnc3ccccc23)c2ccc(Cl)cc12 [Example 14, 5-Chloro-3-guanidinocarbonyl-1-(quinolin-4-yl)-1H-indole] | 5.61 |  |
| NC(N)=NC(=O)c1cn(-c2cnnc3ccccc23)c2ccccc12 [Example 15, N-[1-(Cinnolin-4-yl)-1H-indole-3-carbonyl]-guanidine trifluoroacetate] | 8.82 |  |
| COc1ccc2c(c1)c(C(=O)N=C(N)N)c(C)n2-c1cnnc2ccccc12 [Example 16, N-[1-(Cinnolin-4-yl)-5-methoxy-2-meth-yl-1H-indole-3-carbonyl]-guani-dine trifluoroacetate] | 5.78 |  |

Source: patent US7531663B2, “3-guanidinocarbonyl-1-heteroaryl-indole derivatives, preparation process, their use as medicaments, and pharmaceutical compositions comprising them” (sanofi-aventis Deutschland GmbH, priority 2003, dated 2009)
